Square brackets hold non-standard residues; d marks the D form. Peptide text beside a SMILES is read from it. Phe(βS-OH) = N[C@H](C(=O)O)[C@@H](O)c1ccccc1; Phe(3-F) = N[C@@H](Cc1cccc(F)c1)C(=O)O; Phe(4-F) = N[C@@H](Cc1ccc(F)cc1)C(=O)O; Arg(Me) = CNC(=N)NCCC[C@H](N)C(=O)O; His(π-Me) = Cn1cncc1C[C@H](N)C(=O)O; Hyp = O=C(O)[C@@H]1C[C@@H](O)CN1; αMeF = C[C@](N)(Cc1ccccc1)C(=O)O; dDap = NC[C@@H](N)C(=O)O; Dap = NC[C@H](N)C(=O)O; Aib = CC(C)(N)C(=O)O; Ahx = NCCCCCC(=O)O; azaGly = NNC(=O)O
molecular target: T1, hOT7T175 (Homo sapiens, UniProt Q969F8); assay: Assay for intracellular Ca ion level-increasing activity using FLIPR; assay type: cell-based; conditions: hOT7T175/CHO cells, relative to Metastin (1-54)
T1 construct: expressed in transfected cells
T1 sequence (Q969F8 whole entry L364H): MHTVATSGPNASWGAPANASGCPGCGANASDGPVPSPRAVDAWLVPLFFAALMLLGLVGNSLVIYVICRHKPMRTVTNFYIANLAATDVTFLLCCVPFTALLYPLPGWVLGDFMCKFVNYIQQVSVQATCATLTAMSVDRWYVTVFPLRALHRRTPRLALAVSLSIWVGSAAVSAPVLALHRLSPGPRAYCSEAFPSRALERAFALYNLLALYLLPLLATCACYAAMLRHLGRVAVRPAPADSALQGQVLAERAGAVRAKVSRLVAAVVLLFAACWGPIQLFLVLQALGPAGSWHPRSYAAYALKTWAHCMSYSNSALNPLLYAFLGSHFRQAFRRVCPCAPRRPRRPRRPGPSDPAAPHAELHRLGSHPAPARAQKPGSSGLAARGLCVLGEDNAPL
Experimental: In accordance with the method described in JPA 2000-312590, the intracellular Ca ion level-increasing activity was measured using FLIPR.
The stable expression cell line hOT7T175 was obtained by transfection of the expression plasmid pAK-rOT175 for animal cells into CHO/dhfr^− cells, using CellPhect Transfection Kit (Amersham Pharmacia Biotech, Inc.). First, 240 μL of Buffer A (attached to CellPhect Transfection Kit) was added to 9.6 μg of plasmid DNA dissolved in 240 μL of distilled water followed by stirring. After the mixture was settled for 10 minutes, 480 μL of Buffer B (attached to CellPhect Transfection Kit) was added to the mixture, which was vigorously stirred to form liposomes containing the DNA. Then, 4×10^5 CHO/dhfr^− cells (obtained from ATCC) were inoculated on a 60 mm Petri dish. After culturing the cells in Ham's F-12 medium (Nissui Seiyaku Co., Ltd.) supplemented with 10% fetal bovine serum (BIO WHITTAKER, Inc.) at 37° C. for 2 days in 5% carbon dioxide gas, […] of the liposomes were dropwise added to the cells on the Petri dish. After culturing the cells at 37° C. for 6 hours in 5% carbon dioxide gas, the cells were washed twice with serum-free Ham's F-12 medium and 3 mL of 15% glycerol was added to the cells on the Petri dish followed by treatment for 2 minutes. The cells were again washed twice with serum-free Ham's F-12 medium followed by incubation in Ham's F-12 medium supplemented with 10% fetal bovine serum at 37° C. for 15 hours in 5% carbon dioxide gas. The cells were dispersed by trypsin treatment to recover from the Petri dish. The recovered cells were inoculated on a 6-well plate in 1.25×10^4 cells/well and incubation was initiated at 37° C. in Dulbecco's modified Eagle medium (DMEM) medium (Nissui Seiyaku Co., Ltd.) containing 10% dialyzed fetal bovine serum (JRH BIOSCIENCES, Inc.) in 5% carbon dioxide gas. The plasmid-transfected CHO transformants grew in the medium but the non-transfected cells gradually died, accordingly the medium was exchanged on Days 1 and 2 after the initiation of incubation to remove the cells died. Approximately 20 colonies of the CHO transformants that kept growing on Days 8 to 10 after the incubation were isolated. From the cells in these colonies, cells showing high reactivity with the ligand peptide metastin (hereinafter merely referred to as hOT7T175/CHO) were selected to provide for the following experiment.
The intracellular Ca ion level-increasing activity of the synthetic peptide in hOT7T175/CHO was determined using FLIPR (Molecular Devices, Inc.).
hOT7T175/CHO was subcultured in DMEM supplemented with 10% dialyzed fetal bovine serum (hereinafter abbreviated as dFBS) (hereinafter referred to as 10% dFBS/DMEM) and provided for the experiment. The hOT7T175/CHO was suspended in 10% dFBS-DMEM in 15×10^4 cells/ml. The suspension was inoculated on a 96-well plate for FLIPR (Black Plate Clear Bottom, Coster, Inc.) at 200 μl/well (3.0×10^4 cells/200 μL/well), followed by incubation at 37° C. overnight in a 5% CO2 incubator (hereinafter referred to as the cell plate). Then, 21 ml of HANKS/HBSS (9.8 g of HANKS, 0.35 g of sodium hydrogencarbonate, 20 ml of 1M HEPES; after adjusting the pH to 7.4 with 1N sodium hydroxide, the mixture was sterilized by filtration), 210 μl of 250 mM Probenecid and 210 μl of fetal bovine serum (FBS) (HANKS/HBSS-Probenecid-FBS) were mixed.
Furthermore, 2 vials of Fluo3-AM (50 μg/vial) were dissolved in 21 μL of dimethylsulfoxide and 21 μL of 20% Pluronic acid. The resulting solution was added to and mixed with 10 ml of the HANKS/HBSS-Probenecid-FBS described above. After the culture medium was removed, the mixture was dispensed onto the cell plate in 100 μl each/well, followed by incubation at 37° C. for an hour in a 5% CO2 incubator (pigment loading). The peptide was dissolved in dimethylsulfoxide in 1×10^−3 M. The peptide solution was diluted with HANKS/HBSS containing 2.5 mM Probenecid, 0.2% BSA and 0.1% CHAPS. […]

Structure (SMILES)	Specific Activity: intracellular Ca ion level-increasing activity [specific activity to Metastin (1-54)]
CNC(=N)NCCC[C@H](NC(=O)[C@H](CC(C)C)NC(=O)NNC(=O)[C@H](Cc1ccccc1)NC(=O)[C@@H](NC(=O)[C@H](CC(N)=O)NC(=O)[C@H](C)NC(=O)[C@@H](Cc1ccc(O)cc1)NC(C)=O)[C@@H](C)O)C(=O)N[C@@H](Cc1c[nH]c2ccccc12)C(N)=O [Compound No. 742, Ac-D-Tyr-Ala-Asn-Thr-Phe-AzaGly-Leu-Arg(Me)-Trp-NH2] (Ac-[dY]ANTF[azaGly]L[Arg(Me)]W-NH2)	2.3
CNC(=N)NCCC[C@H](NC(=O)[C@H](CC(C)C)NC(=O)NNC(=O)[C@H](Cc1ccccc1)NC(=O)[C@@H](NC(=O)CNC(=O)[C@@H]1C[C@@H](O)CN1C(=O)[C@@H](Cc1ccc(O)cc1)NC(C)=O)[C@@H](C)O)C(=O)N[C@@H](Cc1c[nH]c2ccccc12)C(N)=O [Compound No. 862, Ac-D-Tyr-Hyp-Gly-Thr-Phe-AzaGly-Leu-Arg(Me)-Trp-NH2] (Ac-[dY][Hyp]GTF[azaGly]L[Arg(Me)]W-NH2)	0.7
CNC(=N)NCCC[C@H](NC(=O)[C@H](CC(C)C)NC(=O)NNC(=O)[C@H](Cc1ccccc1)NC(=O)[C@@H](NC(=O)[C@H](CC(N)=O)NC(=O)[C@@H](CN)NC(=O)[C@@H](Cc1ccc(O)cc1)NC(C)=O)[C@@H](C)O)C(=O)N[C@@H](Cc1c[nH]c2ccccc12)C(N)=O [Compound No. 736, Ac-D-Tyr-D-Dap-Asn-Thr-Phe-AzaGly-Leu-Arg(Me)-Trp-NH2] (Ac-[dY][dDap]NTF[azaGly]L[Arg(Me)]W-NH2)	2.4
CNC(=N)NCCC[C@H](NC(=O)[C@H](CC(C)C)NC(=O)NNC(=O)[C@H](Cc1ccccc1)NC(=O)[C@@H](NC(=O)[C@H](CC(N)=O)NC(=O)[C@@H](CO)NC(=O)[C@@H](Cc1ccc(O)cc1)NC(C)=O)[C@@H](C)O)C(=O)N[C@@H](Cc1c[nH]c2ccccc12)C(N)=O [Compound No. 737, Ac-D-Tyr-D-Ser-Asn-Thr-Phe-AzaGly-Leu-Arg(Me)-Trp-NH2] (Ac-[dY][dS]NTF[azaGly]L[Arg(Me)]W-NH2)	3.0
CNC(=N)NCCC[C@H](NC(=O)[C@H](CC(C)C)NC(=O)NNC(=O)[C@H](Cc1ccccc1)NC(=O)[C@@H](NC(=O)[C@H](CC(N)=O)NC(C)=O)[C@@H](C)O)C(=O)N[C@@H](Cc1c[nH]c2ccccc12)C(N)=O [Compound No. 709, Ac-Asn-Thr-Phe-AzaGly-Leu-Arg(Me)-Trp-NH2] (Ac-NTF[azaGly]L[Arg(Me)]W-NH2)	9.8
CNC(=N)NCCC[C@H](NC(=O)[C@H](CC(C)C)NC(=O)NNC(=O)[C@H](Cc1ccc(F)cc1)NC(=O)[C@@H](NC(=O)[C@H](CC(N)=O)NC(=O)C(C)(C)NC(=O)[C@@H](Cc1ccc(O)cc1)NC(C)=O)[C@@H](C)O)C(=O)N[C@@H](Cc1c[nH]c2ccccc12)C(N)=O [Compound No. 791, Ac-D-Tyr-Aib-Asn-Thr-Phe(4F)-AzaGly-Leu-Arg(Me)-Trp-NH2] (Ac-[dY][Aib]NT[Phe(4-F)][azaGly]L[Arg(Me)]W-NH2)	2.9
CNC(=N)NCCC[C@H](NC(=O)[C@H](CC(C)C)NC(=O)NNC(=O)[C@H](Cc1ccccc1)NC(=O)[C@@H](NC(=O)[C@H](CC(N)=O)NC(=O)[C@H](Cc1cncn1C)NC(=O)[C@@H](Cc1ccc(O)cc1)NC(C)=O)[C@@H](C)O)C(=O)N[C@@H](Cc1c[nH]c2ccccc12)C(N)=O [Compound No. 773, Ac-D-Tyr-His(3Me)-Asn-Thr-Phe-AzaGly-Leu-Arg(Me)-Trp-NH2] (Ac-[dY][His(π-Me)]NTF[azaGly]L[Arg(Me)]W-NH2)	1.1
CNC(=N)NCCC[C@H](NC(=O)[C@H](CC(C)C)NC(=O)NNC(=O)[C@H](Cc1cccc(F)c1)NC(=O)[C@@H](NC(=O)[C@H](CC(N)=O)NC(=O)[C@H](CCC(=O)O)NC(=O)[C@@H](Cc1ccc(O)cc1)NC(C)=O)[C@@H](C)O)C(=O)N[C@@H](Cc1c[nH]c2ccccc12)C(N)=O [Compound No. 757, Ac-D-Tyr-Glu-Asn-Thr-Phe(3F)-AzaGly-Leu-Arg(Me)-Trp-NH2] (Ac-[dY]ENT[Phe(3-F)][azaGly]L[Arg(Me)]W-NH2)	2.7

Continued, values first:

Specific Activity: intracellular Ca ion level-increasing activity [specific activity to Metastin (1-54)]	Structure (SMILES)
0.5	CNC(=N)NCCC[C@H](NC(=O)[C@H](CC(C)C)NC(=O)NNC(=O)[C@H](Cc1ccccc1)NC(=O)CNC(=O)[C@H](CC(N)=O)NC(=O)[C@@H]1C[C@@H](O)CN1C(=O)[C@@H](Cc1ccc(O)cc1)NC(C)=O)C(=O)N[C@@H](Cc1c[nH]c2ccccc12)C(N)=O [Compound No. 813, Ac-D-Tyr-Hyp-Asn-Gly-Phe-AzaGly-Leu-Arg(Me)-Trp-NH2] (Ac-[dY][Hyp]NGF[azaGly]L[Arg(Me)]W-NH2)
0.9	CNC(=N)NCCC[C@H](NC(=O)[C@H](CC(C)C)NC(=O)NNC(=O)[C@H](Cc1ccccc1)NC(=O)[C@@H](NC(=O)[C@H](CN)NC(=O)[C@@H]1C[C@@H](O)CN1C(=O)[C@@H](Cc1ccc(O)cc1)NC(C)=O)[C@@H](C)O)C(=O)N[C@@H](Cc1c[nH]c2ccccc12)C(N)=O [Compound No. 863, Ac-D-Tyr-Hyp-Dap-Thr-Phe-AzaGly-Leu-Arg(Me)-Trp-NH2] (Ac-[dY][Hyp][Dap]TF[azaGly]L[Arg(Me)]W-NH2)
8.9	CNC(=N)NCCC[C@H](NC(=O)[C@H](CC(C)C)NC(=O)NNC(=O)[C@H](Cc1ccccc1)NC(=O)[C@@H](NC(=O)[C@H](CC(N)=O)NC(=O)CCCCCN)[C@@H](C)O)C(=O)N[C@@H](Cc1c[nH]c2ccccc12)C(N)=O [Compound No. 712, Acp-Asn-Thr-Phe-AzaGly-Leu-Arg(Me)-Trp-NH2] (H-[Ahx]NTF[azaGly]L[Arg(Me)]W-NH2)
1.4	CNC(=N)NCCC[C@H](NC(=O)[C@H](CC(C)C)NC(=O)NNC(=O)[C@](C)(Cc1ccccc1)NC(=O)[C@@H](NC(=O)[C@H](CC(N)=O)NC(=O)[C@@H]1C[C@@H](O)CN1C(=O)[C@@H](Cc1ccc(O)cc1)NC(C)=O)[C@@H](C)O)C(=O)N[C@@H](Cc1c[nH]c2ccccc12)C(N)=O [Compound No. 868, Ac-D-Tyr-Hyp-Asn-Thr-αMePhe-AzaGly-Leu-Arg(Me)-Trp-NH2] (Ac-[dY][Hyp]NT[αMeF][azaGly]L[Arg(Me)]W-NH2)
0.8	CNC(=N)NCCC[C@H](NC(=O)[C@H](CC(C)C)NC(=O)NNC(=O)[C@@H](NC(=O)[C@@H](NC(=O)[C@H](CC(N)=O)NC(=O)[C@@H]1C[C@@H](O)CN1C(=O)[C@@H](Cc1ccc(O)cc1)NC(C)=O)[C@@H](C)O)[C@@H](O)c1ccccc1)C(=O)N[C@@H](Cc1c[nH]c2ccccc12)C(N)=O [Compound No. 882, Ac-D-Tyr-Hyp-Asn-Thr-erythro-Ser(3Phenyl)-AzaGly-Leu-Arg(Me)-Trp-NH2] (Ac-[dY][Hyp]NT[Phe(βS-OH)][azaGly]L[Arg(Me)]W-NH2)
